Data taken from patent publication EP1801112A1, “Bicyclic pyrimidines and bicyclic 3,4-dihydropyrimidines as inhibitors of cellular proliferation” (Warner-Lambert Company LLC, priority 1998, dated 1999).
Like-named read-outs stand apart in the source and are kept apart here.

Key:
cdc2/cyclinB = cdc2/cyclinB (Homo sapiens, UniProt P06493); assay: Cyclin-Dependent Kinase Assay cdc2/cyclinB; format: biochemical
[1] = target: T1, FGF-1 (flg) receptor tyrosine kinase (Homo sapiens, UniProt P11362); assay: FGF Receptor Tyrosine Kinase Assay; format: biochemical; settings: glutamate-tyrosine co-polymer substrate, 50 µM ATP
T1 construct: amplify a fragment of DNA that codes for the intracellular tyrosine kinase domain; made in house; host or cells: SF9 insect cells (baculovirus); crude cell lysate used

cdk2/cyclinA = cdk2/cyclinA (Homo sapiens, UniProt P24941); assay: Cyclin-Dependent Kinase Assay cdk2/cyclinA; format: biochemical
c-Src = target: T2, c-Src (Homo sapiens, UniProt P12931); assay: c-Src protein kinase assay; format: biochemical; settings: poly GluTyr substrate, 5 µM ATP
T2 construct: made in house; host or cells: baculovirus infected insect cells
Procedure: The assay was carried out as follows: c-Src kinase was purified from baculovirus infected insect cell lysates using an antipeptide monoclonal antibody directed against the N-terminal amino acids (amino acids 2-17) of c-Src. The antibody, covalently linked to 0.65 µm latex beads, was added to a suspension of insect cell lysis buffer comprised of 150 mM NaCl, 50 mM Tris pH 7.5, 1 mM DTT, 1% NP-40, 2 mM EGTA, 1 mM sodium vanadate, 1 mM PMSF, 1 µg/mL each of leupeptin, pepstatin, and aprotinin. Insect cell lysate containing c-Src protein was incubated with these beads for 3 to 4 hours at 4°C with rotation. At the end of the lysate incubation, the beads were rinsed three times in lysis buffer, resuspended in lysis buffer containing 10% glycerol, and frozen. These latex beads were thawed, rinsed three times in assay buffer (40 mM Tris, pH 7.5, […]) and suspended in the same buffer. In a Millipore 96-well plate with a 0.65 µm polyvinylidine membrane bottom were added the reaction components: 10 µL c-Src beads, 10 µL of 2.5 mg/mL poly GluTyr substrate, 5 µM ATP containing 0.2 µCi labeled ^32P-ATP, 5 µL DMSO containing inhibitors or as a solvent control, and buffer to make the final volume 125 µL. The reaction was started at room temperature by addition of the ATP and quenched 10 minutes later by the addition of 125 µL of 30% TCA, 0.1 M sodium pyrophosphate for 5 minutes on ice. […] The filters were then punched, counted in a liquid scintillation counter, and the data examined for inhibitory activity in comparison to a known inhibitor such as erbstatin. […]

[2] = target: T3, PDGF-β receptor tyrosine kinase (Mus musculus, UniProt P05622); assay: PDGF Receptor Tyrosine Kinase Assay; format: biochemical; settings: glutamate-tyrosine co-polymer substrate, 50 µM ATP
T3 construct: amplify a fragment of DNA that codes for the intracellular tyrosine kinase domain; made in house; host or cells: SF9 insect cells (baculovirus); crude cell lysate used
Text: PDGF and FGF Receptor Tyrosine Kinase Assays
Full-length cDNAs for the mouse PDGF-β and human FGF-1 (flg) receptor tyrosine kinases were obtained from J. Escobedo and prepared as described in J. Biol. Chem., 1991;262:1482-1487. PCR primers were designed to amplify a fragment of DNA that codes for the intracellular tyrosine kinase domain. The fragment was inserted into a baculovirus vector, cotransfected with AcMNPV DNA, and the recombinant virus isolated. SF9 insect cells were infected with the virus to overexpress the protein, and the cell lysate was used for the assay. Assays were performed in 96-well plates (100 µL/incubation/well), and conditions were optimized to measure the incorporation of ^32P from γ^32P-ATP into a glutamate-tyrosine co-polymer substrate. Briefly, to each well was added 82.5 µL of incubation buffer containing 25 mM Hepes (pH 7.0), 150 mM NaCl, 0.1% Triton X-100, 0.2 mM PMSF, 0.2 mM Na3VO4, 10 mM MnCl2, and 750 µg/mL of Poly (4:1) glutamate-tyrosine followed by […] of inhibitor and 5 µL of enzyme lysate (7.5 µg/µL FGF-TK or 6.0 µg/µL PDGF-TK) to initiate the reaction. Following a 10 minute incubation at 25°C, […] of γ^32P-ATP (0.4 µCi plus 50 µM ATP) was added to each well, and samples were incubated for an additional 10 minutes at 25°C. The reaction was terminated by the addition of 100 µL of 30% trichloroacetic acid (TCA) containing 20 mM sodium pyrophosphate and precipitation of material onto glass fiber mats (Wallac). Filters were washed three times with 15% TCA containing 100 mM sodium pyrophosphate, and the radioactivity retained on the filters counted in a Wallac 1250 Betaplate reader. Nonspecific activity was defined as radioactivity retained on the filters following incubation of samples with buffer alone (no enzyme). Specific enzymatic activity (enzyme plus buffer) was defined as total activity minus nonspecific activity. […]

cdk4/D = cdk4/D (Homo sapiens, UniProt P11802); assay: Cyclin-Dependent Kinase 4 (cdk4) Assay; format: biochemical
cdk2/cyclinE = cdk2/cyclinE (Homo sapiens, UniProt P24941); assay: Cyclin-Dependent Kinase Assay cdk2/cyclinE; format: biochemical
[3] = system: human umbilical vein endothelial cells; assay: Human Umbilical Vein Endothelial Cell (HUVEC) Proliferation Assay; format: cell-based; settings: 96 h, four days incubation, Sulphorhodamine B staining
Procedure: The compounds of Formula I are useful for treating cell proliferative disorders concerning angiogenesis and have been evaluated in a human umbilical vein endothelial cell in vitro assay. The assay described below is used to determine the anti-proliferative effects of the invention compounds on human umbilical vein endothelial cells, and the results are shown in Table 7.
Human Umbilical Vein Endothelial Cell (HUVEC) Proliferation Assay
Ninety-six well tissue culture plates are seeded with 100 µL of cells in all wells of rows A->G with row H remaining empty as a blank. HUVEC (Clonetics, San Diego, CA) are grown in endothelial growth medium (EGM media, Clonetics), containing 2% fetal bovine serum. The cell seed density for HUVEC cells is 20,000 per mL. C6 cells (ATCC Cat. No. CCL-107) are seeded at 6000 per mL in F10 medium (nutrient mixture Hemes) supplemented with 15% horse serum, 2.5% fetal bovine serum, and 6.0 mL 200 mM Glutamine per 600 mL medium. A90 cells (Suny, Buffalo, NY) are also seeded at 6000 per mL, but they are grown in RPMI 1640 (Roswell Park Memorial Institute) plus 10% fetal bovine serum. Unless noted otherwise, tissue culture media and components are from GIBCO. The cells are allowed to incubate at 37°C, 5% CO2, and 100% relative humidity for 16-24 hours.
Invention compounds are prepared by dissolving them in DMSO at a concentration of 5 mM, followed by dilution to 50 µM in EGM media. One hundred microliters of the compounds are applied to duplicate wells in column 1 of the previously prepared cell plates. Column 1 row H receives 100 µL of EGM media. The compounds in column 1 are diluted across the plates using serial twofold dilutions.
The plates are incubated as above for an additional four days before being stained with Sulphorhodamine B. Staining is performed as follows: The media is removed from the plates, and the cells are fixed using 10% trichloroacetic acid for 30 minutes at 4°C. Following fixation, the plates are washed five times with distilled water after which 100 µL of Sulphorhodamine B is added to each well. Sulphorhodamine B is dissolved in 1% acetic acid to a concentration of .075%. Following staining, excess stain is removed from the wells, and the plates are washed four times with 1% acetic acid. The plates are allowed to air dry before the bound dye is solubilized in 100 µL of 10 mM unbuffered TRIS base. Absorbance is measured on a 96 well plate reader at […] using a reference filter wavelength of 630 nm. […] Sulphorhodamine B and TRIS are from Sigma Chemical Company. Acetic acid and trichloroacetic acid are from Mallinckrodt AR.

[4] = retinoblastoma substrate, read-out: IC50 (µM) cdkl/B
[5] = retinoblastoma substrate, read-out: IC50 (µM) cdk2/A
[6] = 25 µM ATP, retinoblastoma substrate, read-out: IC50 (µM) cdk4/D
[7] = retinoblastoma substrate, read-out: IC50 (µM) cdk2/E

Chain of cdc2/cyclinB (P06493 whole entry): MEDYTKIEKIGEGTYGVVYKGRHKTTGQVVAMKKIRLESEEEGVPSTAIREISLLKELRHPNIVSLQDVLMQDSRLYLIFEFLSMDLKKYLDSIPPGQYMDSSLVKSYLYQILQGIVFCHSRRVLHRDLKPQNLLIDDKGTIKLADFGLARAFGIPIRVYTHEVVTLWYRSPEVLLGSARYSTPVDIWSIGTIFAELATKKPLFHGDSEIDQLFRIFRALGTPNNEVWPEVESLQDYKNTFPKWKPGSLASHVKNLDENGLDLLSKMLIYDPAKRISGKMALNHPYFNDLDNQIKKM
Chain of cdc2/cyclinB (P14635 whole entry, further chain): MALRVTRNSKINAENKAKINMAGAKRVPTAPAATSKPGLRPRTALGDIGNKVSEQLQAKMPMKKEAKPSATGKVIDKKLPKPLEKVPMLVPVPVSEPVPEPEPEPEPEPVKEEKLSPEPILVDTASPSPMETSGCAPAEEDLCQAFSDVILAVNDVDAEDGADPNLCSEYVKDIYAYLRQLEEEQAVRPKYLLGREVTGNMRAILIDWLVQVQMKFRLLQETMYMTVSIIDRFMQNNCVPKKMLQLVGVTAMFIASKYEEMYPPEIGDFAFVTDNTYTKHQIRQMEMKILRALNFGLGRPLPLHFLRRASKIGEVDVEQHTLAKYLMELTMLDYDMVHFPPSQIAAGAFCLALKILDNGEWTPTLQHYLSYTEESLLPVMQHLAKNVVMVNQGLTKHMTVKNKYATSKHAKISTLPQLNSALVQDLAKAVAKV
T1 sequence (P11362 478-767 limits assumed): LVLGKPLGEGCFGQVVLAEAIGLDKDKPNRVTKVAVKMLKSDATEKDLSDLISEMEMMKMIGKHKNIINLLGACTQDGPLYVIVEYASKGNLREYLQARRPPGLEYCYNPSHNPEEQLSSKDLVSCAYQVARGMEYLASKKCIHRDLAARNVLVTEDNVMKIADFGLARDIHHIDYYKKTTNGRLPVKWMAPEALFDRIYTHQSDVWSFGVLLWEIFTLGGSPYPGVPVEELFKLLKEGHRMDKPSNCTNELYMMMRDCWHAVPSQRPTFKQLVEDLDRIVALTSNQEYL
Chain of cdk4/D (P11802 whole entry): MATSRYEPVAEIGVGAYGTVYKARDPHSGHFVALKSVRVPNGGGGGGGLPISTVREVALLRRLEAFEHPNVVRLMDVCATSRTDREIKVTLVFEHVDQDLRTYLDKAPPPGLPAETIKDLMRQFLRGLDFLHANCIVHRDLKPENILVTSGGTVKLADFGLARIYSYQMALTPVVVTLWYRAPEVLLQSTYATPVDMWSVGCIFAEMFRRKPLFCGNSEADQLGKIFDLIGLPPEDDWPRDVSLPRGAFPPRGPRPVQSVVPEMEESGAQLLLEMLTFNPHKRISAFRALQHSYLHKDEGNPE
Chain of cdk4/D (P24385 whole entry, further chain): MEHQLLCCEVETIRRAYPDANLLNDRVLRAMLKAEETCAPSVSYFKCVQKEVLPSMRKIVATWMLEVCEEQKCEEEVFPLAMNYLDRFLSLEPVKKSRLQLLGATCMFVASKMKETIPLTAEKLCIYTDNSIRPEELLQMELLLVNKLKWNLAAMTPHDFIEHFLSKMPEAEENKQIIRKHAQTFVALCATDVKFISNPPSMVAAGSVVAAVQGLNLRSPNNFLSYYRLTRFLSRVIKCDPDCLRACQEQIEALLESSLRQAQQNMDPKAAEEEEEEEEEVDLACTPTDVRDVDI
T3 sequence (P05622 599-961 limits assumed): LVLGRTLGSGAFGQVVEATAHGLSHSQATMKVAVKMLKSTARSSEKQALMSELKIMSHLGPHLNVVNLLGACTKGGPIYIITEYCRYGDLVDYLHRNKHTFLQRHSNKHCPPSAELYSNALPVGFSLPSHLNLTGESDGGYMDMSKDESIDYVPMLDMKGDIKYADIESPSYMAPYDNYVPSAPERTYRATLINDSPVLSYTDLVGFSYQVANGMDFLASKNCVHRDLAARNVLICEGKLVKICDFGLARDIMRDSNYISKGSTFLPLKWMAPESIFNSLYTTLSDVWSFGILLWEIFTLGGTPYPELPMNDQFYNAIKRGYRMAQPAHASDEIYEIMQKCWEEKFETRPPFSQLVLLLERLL
T2 sequence (P12931 whole entry): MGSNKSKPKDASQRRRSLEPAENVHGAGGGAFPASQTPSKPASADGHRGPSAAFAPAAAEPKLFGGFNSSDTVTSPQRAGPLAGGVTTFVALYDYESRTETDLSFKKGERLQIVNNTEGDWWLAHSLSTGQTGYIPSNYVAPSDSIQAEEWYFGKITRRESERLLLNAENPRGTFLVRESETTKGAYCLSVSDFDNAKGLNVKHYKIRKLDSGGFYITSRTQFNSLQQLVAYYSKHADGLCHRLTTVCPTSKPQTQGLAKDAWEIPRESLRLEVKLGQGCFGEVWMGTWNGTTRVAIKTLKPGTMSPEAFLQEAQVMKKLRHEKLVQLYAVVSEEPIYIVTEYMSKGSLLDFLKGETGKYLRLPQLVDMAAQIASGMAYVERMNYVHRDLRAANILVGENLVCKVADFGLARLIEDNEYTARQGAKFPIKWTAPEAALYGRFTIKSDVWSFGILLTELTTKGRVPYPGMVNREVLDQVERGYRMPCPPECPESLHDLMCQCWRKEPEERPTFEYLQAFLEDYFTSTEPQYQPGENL

Row | SMILES | IC50 (cdc2/cyclinB; [4]) [µM] | IC50 [1] [µM] | IC50 (cdk2/cyclinA; [5]) [µM] | IC50 (c-Src) [nM] | IC50 [2] [µM] | IC50 (cdk4/D; [6]) [µM] | IC50 (cdk2/cyclinE; [7]) [µM] | IC50 (cdc2/cyclinB) [µM] | IC50 (cdk2/cyclinA) [µM] | IC50 (cdk4/D) [µM] | IC50 (cdk2/cyclinE) [µM] | IC50 [3] [nM]
1 | CN1CCN(c2ccc(Nc3ncc4c(n3)N(C3CCCC3)C(=O)NC4)cc2)CC1 [Example 11, 1-Cyclopentyl-7-[4-(4-methylpiperazin-1-yl)phenylamino]-3,4-dihydropyrimido[4,5-d]pyrimidin-2(1H)-one] | 11.6 | 0.023 | 0.76 | 710 | 0.175 | 0.039 | 2.12 | – | – | – | – | –
2 | CN1CCN(c2ccc(Nc3ncc4cnc(=O)n(C5CCCC5)c4n3)cc2)CC1 [Example 32, 1-Cyclopentyl-7-[4-(4-methylpiperazin-1-yl)phenylamino]pyrimido-[4,5-d]pyrimidin-2(1H)-one] | 7.51 | 0.37 | 0.83 | 3950 | 1.63 | 0.05 | 1.38 | – | – | – | – | –
3 | O=c1ncc2cnc(Nc3ccc(N4CCCC(O)C4)cc3)nc2n1C1CCCC1 (stereo not drawn) [Example 35, 1-Cyclopentyl-7-[4-(3-hydroxypiperidin-1-yl)phenylamino]pyrimido[4,5-d]-pyrimidin-2(1H)-one] | – | 3.49 | – | 4650 | 2.8 | – | – | 8.54 | 0.99 | 0.082 | 1.05 | –
4 | O=c1ncc2cnc(Nc3ccc(N4CCC(CCN5CCOCC5)CC4)cc3)nc2n1C1CCCC1 [Example 39] | – | – | – | 3230 | 3.76 | – | – | 24.6 | 1.44 | 0.3 | 1.85 | –
5 | CC(C)n1c(=O)ncc2cnc(Nc3ccc(N4CCC(N(C)C)CC4)cc3)nc21 [Example 41, 7-{4-[4-(Dimethylamino)piperidin-1-yl]phenylamino}-1-isopropyl-pyrimido[4,5-d]pyrimidin-2(1H)-one] | – | 11.7 | – | 3060 | > 50 | – | – | > 40 | 14.8 | – | > 40 | –
6 | CCN(CC)CCCCNc1ncc2c(n1)N(CC)C(=O)N(c1cc(OC)cc(OC)c1)C2 [Example 53, 7-(4-Diethylamino-butylamino)-3-(3,5-dimethoxy-phenyl)-1-ethyl-3,4-dihydro-pyrimido[4,5-d]pyrimidin-2(1H)-one] | – | 0.06 | – | – | 5 | – | – | – | – | – | – | 192
